{"source": "patent US4339440A", "about": "“Enkephalin analogs and a process for the preparation thereof” (priority 1980, dated 1982)", "key": {"mouse vas deferens (MVD)": {"test_system": "mouse vas deferens (MVD)", "settings": "literature comparison of GPI and MVD preparations; cited from earlier work"}, "anesthetized cats": {"test_system": "anesthetized cats", "experiment": "Cardiovascular effects in cats anesthetized with pentobarbital (blood pressure, heart rate, vasomotor reflex elicited by carotis occlusion)", "format": "in vivo", "description": "In addition to the effects on the blood pressure and heart rate, the actions on the vasomotor reflex elicited by carotis occlusion, were also studied. […] The duration of the former effects was 20-25 min., while that of the latter was 40-60 min. […] It is noteworthy that the reference compound morphine […] hypotension of similar magnitude produced by 0.1 mg/kg of peptides only in doses higher than 1.0 mg/kg (Table 2).\n(a) Cats of both sexes, weighing 3000-4000 g, anesthetized with 35 mg/kg pentobarbital, i.p.\n(b) C.O.: Inhibition of vasomotor reflex elicited by carotis occlusion;"}}, "note": "Square brackets hold non-standard residues; d marks the D form. Ends that are not written are not given here.", "data": [{"molecule": "Tyr-D-Ala-Gly-Phe-D-Leu", "values": [{"measurement": "Activity on MVD compared with GPI (in words)", "setting": "mouse vas deferens (MVD)", "value": "more active on MVD than on GPI"}]}, {"molecule": "Tyr-D-Ala-Gly-MePhe-Met(O)-ol", "values": [{"measurement": "Activity on MVD compared with GPI (in words)", "setting": "mouse vas deferens (MVD)", "value": "twice as active on GPI as on MVD"}]}, {"molecule": "CN1CC[C@]23c4c5ccc(O)c4O[C@H]2[C@@H](O)C=C[C@H]3[C@H]1C5", "note": "[Morphine, morphine]", "values": [{"measurement": "Decrease of heart rate", "setting": "anesthetized cats; 0.2 mg/kg i.v.", "value": ".phi."}, {"measurement": "Fall in blood pressure", "setting": "anesthetized cats; 0.2 mg/kg i.v.", "value": "6.7 ± 2.1", "unit": "mm Hg"}, {"measurement": "Inhibition of C.O. (vasomotor reflex elicited by carotis occlusion)", "setting": "anesthetized cats; 0.2 mg/kg i.v.", "value": ".phi."}, {"measurement": "Decrease of heart rate", "setting": "anesthetized cats; 1.0 mg/kg i.v.", "value": "10.2 ± 2.3", "unit": "beat/min."}, {"measurement": "Fall in blood pressure", "setting": "anesthetized cats; 1.0 mg/kg i.v.", "value": "16.7 ± 3.2", "unit": "mm Hg"}, {"measurement": "Inhibition of C.O. (vasomotor reflex elicited by carotis occlusion)", "setting": "anesthetized cats; 1.0 mg/kg i.v.", "value": "+ (inhibition is smaller than 50%)"}, {"measurement": "Decrease of heart rate", "setting": "anesthetized cats; 5.0 mg/kg i.v.", "value": "16.7 ± 3.5", "unit": "beat/min."}, {"measurement": "Fall in blood pressure", "setting": "anesthetized cats; 5.0 mg/kg i.v.", "value": "33.6 ± 6.7", "unit": "mm Hg"}, {"measurement": "Inhibition of C.O. (vasomotor reflex elicited by carotis occlusion)", "setting": "anesthetized cats; 5.0 mg/kg i.v.", "value": "++ (inhibition is higher than 50%)"}, {"measurement": "Dose eliciting hypotension of similar magnitude to that produced by 0.1 mg/kg of peptides", "setting": "anesthetized cats; i.v.", "value": "higher than 1.0 mg/kg"}, {"measurement": "Activity on MVD compared with GPI (in words)", "setting": "mouse vas deferens (MVD)", "value": "higher activity on GPI"}]}, {"molecule": "β-Endorphine: β-Endorphine of natural occurrence (a 31-membered polypeptide) (YGGFMTSEKSQTPLVTLFKNAIIKNAYKKGE; Beta-endorphin; UniProt P01189 237-267, looked up)", "values": [{"measurement": "Activity on MVD compared with GPI (in words)", "setting": "mouse vas deferens (MVD)", "value": "equally active on GPI and MVD"}]}, {"molecule": "Y[dM]GFP-NH2", "values": [{"measurement": "Activity on MVD compared with GPI (in words)", "setting": "mouse vas deferens (MVD)", "value": "the same level of activity on both preparations"}]}]}
